Results as given in patent US9464077B2, “Nitrogen-containing aromatic heterocyclic compound” (Astellas Pharma Inc., priority 2012, dated 2016).

Tests used:
FGFR3_S249C/NIH3T3 cells = assay: Growth assay of cells with forced expression of mutant FGFR3; type: cell-based; conditions: Mus musculus, NIH3T3, 120 h; 5 days after addition, CellTiter-Glo; read-out: IC50 (growth inhibition)
Procedure: FGFR3_S249C/NIH3T3 cells were added to a 96-well spheroid plate (U bottom) at a concentration of 3000 cells/well/90 μL, and the compound solution (10 μL) was added thereto on the next day (final DMSO concentration: 0.1%). The compound solution was prepared by serially diluting the compound with DMSO at a 3-fold common ratio (9 portions and DMSO only) from the maximum concentration of 10 mM and then diluted 100-fold with a culture medium (D-MEM, 10% FBS). 5 days after the addition of the compound, the growth inhibition caused by the compound was evaluated by Promega (G7573) CellTiter-Glo™ Luminescent Cell Viability Assay.

[1] = test system: FGFR3-TACC3_v1 (N-FLAG) fusion polypeptide; assay: In vitro kinase activity inhibition (HTRF KinEASE-TK); type: biochemical, human; conditions: 100 μM ATP
[2] = test system: FGFR3-TACC3_v2 (N-FLAG) fusion polypeptide; assay: as above; type: biochemical, human; conditions: 100 μM ATP
[3] = test system: FGFR3-BAIAP2L1-expressing NIH3T3 cells; assay: Anchorage-independent cell growth inhibition, spheroid plate; type: cell-based; conditions: Mus musculus, NIH3T3, 96 h, 4 days, read-out: growth inhibition rate FGFR3-BAIAP2L1-expressing NIH3T3 Cells
Procedure: (§1) In a 96-well spheroid plate (Sumilon Celltight Spheroid 96U; Sumitomo Bakelite), FGFR3-BAIAP2L1-expressing NIH3T3 cells were seeded at 1×10^3 cells per well in D-MEM medium containing 10% fetal bovine serum. A well supplemented with only medium was also prepared for a positive control. Culturing was performed overnight in the presence of 5% CO2 at 37° C. followed by addition of test compounds (final concentrations: 100 nM, 10 nM, and 1 nM). As a negative control, DMSO used as a solvent for the compounds was added at the same concentration (0.1%) as in the case of addition of the compounds. Then, culturing was performed in the presence of 5% CO2 at 37° C. for 4 days, and a cell counting reagent (CellTiter-Glo™ Luminescent Cell Viability Assay; Promega) was added and the resulting mixture was stirred for 20 minutes followed by measurement with a luminometer.

[4] = test system: bladder cancer patient-derived cell line RT-112; assay: as above; type: cell-based; conditions: Homo sapiens, RT-112, 96 h, 4 days, read-out: growth inhibition rate RT-112
[5] = test system: UM-UC-14 (FGFR3_S249C-positive cells, bladder cancer); assay: Antitumor test on UM-UC-14 subcutaneous xenograft; type: in vivo, nude mice; conditions: oral, 1 mg/kg/day, once a day, tumor volume at Day 11 vs Day 1
Procedure: 3×10^6 UM-UC-14 cells per 0.1 mL (PBS+matrigel, 1:1) were inoculated subcutaneously into the right flank of nude mice (CAnN, Cg-Foxn1nu/CrlCrlj (nu/nu), male, 4- to 5-week-old), and when their tumor size reached about 250 mm^3, drug administration was started (Day 1). The drug was administered once a day and the tumor size was measured with a caliper and the body weight was also measured every two or three days. The antitumor effect was finally determined based on the tumor volume (mm^3; minor axis (mm)×minor axis (mm)×major axis (mm)/2) at Day 11 (n=3-5). To the control group, 0.5% MC (methyl cellulose) was administered. […] “% regression” indicates what percentage of regression could be achieved compared with the tumor volume at Day 1. Here, the tumor volume at Day 1 means tumor volume immediately before drug administration.

[6] = test system: FGFR3-TACC3_v4-expressing NIH3T3 cells; assay: Anchorage-independent cell growth inhibition, spheroid plate; type: cell-based; conditions: Mus musculus, NIH3T3, 96 h, 4 days, read-out: growth inhibition rate v4
Excerpt: (§2) Measurement for anchorage-independent cell growth (colony method, etc.) is known to be a system for investigating the anticancer action (pharmacological effect) of compounds (Clinical Oncology, second edition, Cancer and Chemotherapy Publishers Inc.). As a method for measuring the non-adhesive growth of cells, there is the following method using a spheroid plate as referred to above in place of the colony method.
as §1, with “Bakelite), FGFR3-TACC3_v1-expressing NIH3T3 cells, FGFR3-TACC3_v2-expressing NIH3T3 cells, FGFR3-TACC3_v3-expressing NIH3T3 cells, and FGFR3-TACC3_v4-expressing” for “Bakelite), FGFR3-BAIAP2L1-expressing”, “were each” for “were”, “D-MEM media (Invitrogen)” for “D-MEM medium”, “serum. […]” for “serum.”

[7] = test system: FGFR3-TACC3_v1-expressing NIH3T3 cells; assay: as above; type: cell-based; conditions: Mus musculus, NIH3T3, 96 h, 4 days, read-out: growth inhibition rate v1
Excerpt: as §2
as §1, with “Bakelite), FGFR3-TACC3_v1-expressing NIH3T3 cells, FGFR3-TACC3_v2-expressing NIH3T3 cells, FGFR3-TACC3_v3-expressing NIH3T3 cells, and FGFR3-TACC3_v4-expressing” for “Bakelite), FGFR3-BAIAP2L1-expressing”, “were each” for “were”, “D-MEM media (Invitrogen)” for “D-MEM medium”, “serum. […]” for “serum.”

[8] = test system: FGFR3-TACC3_v2-expressing NIH3T3 cells; assay: as above; type: cell-based; conditions: Mus musculus, NIH3T3, 96 h, 4 days, read-out: growth inhibition rate v2
Excerpt: as §2
as §1, with “Bakelite), FGFR3-TACC3_v1-expressing NIH3T3 cells, FGFR3-TACC3_v2-expressing NIH3T3 cells, FGFR3-TACC3_v3-expressing NIH3T3 cells, and FGFR3-TACC3_v4-expressing” for “Bakelite), FGFR3-BAIAP2L1-expressing”, “were each” for “were”, “D-MEM media (Invitrogen)” for “D-MEM medium”, “serum. […]” for “serum.”

[9] = test system: FGFR3-TACC3_v3-expressing NIH3T3 cells; assay: as above; type: cell-based; conditions: Mus musculus, NIH3T3, 96 h, 4 days, read-out: growth inhibition rate v3
Excerpt: as §2
as §1, with “Bakelite), FGFR3-TACC3_v1-expressing NIH3T3 cells, FGFR3-TACC3_v2-expressing NIH3T3 cells, FGFR3-TACC3_v3-expressing NIH3T3 cells, and FGFR3-TACC3_v4-expressing” for “Bakelite), FGFR3-BAIAP2L1-expressing”, “were each” for “were”, “D-MEM media (Invitrogen)” for “D-MEM medium”, “serum. […]” for “serum.”

human recombinant FGFR3 = human recombinant FGFR3 (Homo sapiens, UniProt P22607); assay: FGFR3 enzyme assay (LabChip EZ Reader)
Sequence of human recombinant FGFR3 (P22607 23-806): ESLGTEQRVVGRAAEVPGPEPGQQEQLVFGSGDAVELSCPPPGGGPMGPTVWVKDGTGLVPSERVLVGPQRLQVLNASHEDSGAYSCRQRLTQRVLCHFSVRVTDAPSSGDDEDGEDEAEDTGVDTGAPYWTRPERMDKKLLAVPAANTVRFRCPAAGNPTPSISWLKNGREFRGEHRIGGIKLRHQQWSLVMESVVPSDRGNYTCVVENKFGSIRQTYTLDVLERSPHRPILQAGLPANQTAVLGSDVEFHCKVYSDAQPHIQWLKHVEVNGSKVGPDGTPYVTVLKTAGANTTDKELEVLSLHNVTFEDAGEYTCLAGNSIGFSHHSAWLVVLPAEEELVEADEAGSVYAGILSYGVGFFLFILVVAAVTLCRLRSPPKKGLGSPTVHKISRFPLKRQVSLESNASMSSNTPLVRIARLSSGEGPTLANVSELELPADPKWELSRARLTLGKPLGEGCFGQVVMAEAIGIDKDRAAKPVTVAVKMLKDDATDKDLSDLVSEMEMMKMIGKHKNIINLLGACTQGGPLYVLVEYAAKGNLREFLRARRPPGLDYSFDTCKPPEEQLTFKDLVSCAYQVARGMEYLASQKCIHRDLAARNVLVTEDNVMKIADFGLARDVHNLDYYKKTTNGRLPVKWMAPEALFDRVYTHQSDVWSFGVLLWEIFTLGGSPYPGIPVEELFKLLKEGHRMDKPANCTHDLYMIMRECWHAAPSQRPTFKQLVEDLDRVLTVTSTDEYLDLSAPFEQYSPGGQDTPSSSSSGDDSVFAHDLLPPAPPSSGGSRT
Procedure: (§3) The compound was diluted with a solution of dimethyl sulfoxide (DMSO) (10-fold common ratio, 4 portions) before dilution with a reaction buffer (100 mM HEPES (pH7.5), 0.003% Brij-35, 0.004% Tween 20, 0.5 mM DTT, and 10 mM MgCl2) so that the final DMSO concentration was 2%. To 4 μL of the compound solution in a 384-well plate, 2 μL each of FGFR1 enzyme (2 or 3 ng/μL), FGFR2 enzyme (2 ng/μL), or FGFR3 enzyme (6 ng/μL) which were diluted with the reaction buffer was added. […] After the reaction was stopped, the reaction mixture was measured with a LabChip EZ Reader. The IC50 values were calculated by non-linear regression based on the inhibition rates obtained.

human recombinant FGFR1 = human recombinant FGFR1 (Homo sapiens, UniProt P11362); assay: FGFR1 enzyme assay (LabChip EZ Reader)
Sequence of human recombinant FGFR1 (P11362 22-822): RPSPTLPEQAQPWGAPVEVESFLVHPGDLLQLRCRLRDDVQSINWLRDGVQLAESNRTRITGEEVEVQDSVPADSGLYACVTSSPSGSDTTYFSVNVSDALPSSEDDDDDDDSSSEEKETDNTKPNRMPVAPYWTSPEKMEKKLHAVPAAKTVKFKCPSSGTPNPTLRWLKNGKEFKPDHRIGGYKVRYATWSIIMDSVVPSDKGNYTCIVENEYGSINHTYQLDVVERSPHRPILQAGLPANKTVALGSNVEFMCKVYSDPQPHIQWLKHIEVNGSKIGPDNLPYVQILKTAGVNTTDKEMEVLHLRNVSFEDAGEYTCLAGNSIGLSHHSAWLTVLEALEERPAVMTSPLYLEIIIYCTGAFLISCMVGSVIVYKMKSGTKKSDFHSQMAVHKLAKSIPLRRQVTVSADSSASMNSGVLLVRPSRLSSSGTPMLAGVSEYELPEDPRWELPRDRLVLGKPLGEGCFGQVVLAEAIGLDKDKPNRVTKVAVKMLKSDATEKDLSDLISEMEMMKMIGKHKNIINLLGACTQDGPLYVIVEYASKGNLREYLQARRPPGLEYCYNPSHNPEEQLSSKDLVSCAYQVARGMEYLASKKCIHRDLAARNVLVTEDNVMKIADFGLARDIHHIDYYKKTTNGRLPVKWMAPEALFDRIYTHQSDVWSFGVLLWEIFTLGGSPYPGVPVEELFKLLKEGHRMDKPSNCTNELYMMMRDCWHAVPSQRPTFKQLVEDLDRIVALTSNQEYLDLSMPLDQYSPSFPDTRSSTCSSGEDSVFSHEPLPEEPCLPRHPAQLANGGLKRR
Procedure: as §3

COc1cc(OC)c(F)c(COc2cnc(Nc3ccc(N4CCC(NCCO)CC4)cc3)nc2)c1F [Example 299]
IC50 (FGFR3_S249C/NIH3T3 cells): 10 nM | rate of inhibiting kinase activity v1 ([1]; 1 nM): 35% | rate of inhibiting kinase activity v1 ([1]; 10 nM): 84% | rate of inhibiting kinase activity v1 ([1]; 100 nM): 94% | rate of inhibiting kinase activity v2 ([2]; 1 nM): 20% | rate of inhibiting kinase activity v2 ([2]; 10 nM): 77% | rate of inhibiting kinase activity v2 ([2]; 100 nM): 95% | inhibition at 0.001 µM ([3]; 1 nM): 15% | inhibition at 0.01 µM ([3]; 10 nM): 81% | inhibition at 0.1 µM ([3]; 100 nM): 91% | inhibition at 0.001 µM ([4]; 1 nM): 31% | inhibition at 0.01 µM ([4]; 10 nM): 84% | inhibition at 0.1 µM ([4]; 100 nM): 89% | Antitumor Activity, % regression [5]: 15% | inhibition at 0.001 µM ([6]; 1 nM): 16% | inhibition at 0.01 µM ([6]; 10 nM): 82% | inhibition at 0.1 µM ([6]; 100 nM): 90% | inhibition at 0.001 µM ([7]; 1 nM): 9% | inhibition at 0.01 µM ([7]; 10 nM): 77% | inhibition at 0.1 µM ([7]; 100 nM): 92% | inhibition at 0.001 µM ([8]; 1 nM): 4% | inhibition at 0.01 µM ([8]; 10 nM): 63% | inhibition at 0.1 µM ([8]; 100 nM): 91% | inhibition at 0.001 µM ([9]; 1 nM): 5% | inhibition at 0.01 µM ([9]; 10 nM): 51% | inhibition at 0.1 µM ([9]; 100 nM): 89% | IC50 (human recombinant FGFR3): 2 nM | IC50 (human recombinant FGFR1): < 1 nM
